System: Costello (CS) zebrafish injected with HRASV12 plasmid
Assay: Phenotype analysis (survival, developmental defects) of Costello zebrafish embryos
Assay type: in vivo, Zebrafish (Danio rerio)
Settings: HRASG12V-embryos; for survival rate: single agent 20 μM by bathing 1 dpf to 5 dpf, 4 days of treatment; for number of defective individuals among alive embryo: single agent 20 μM, vehicle (DMSO) 60%
Description: Zebrafish (Danio rerio) embryos were obtained from natural spawnings and raised in embryo medium (E3) (97) at 28.5° C. Embryos were staged as described previously [46]. Starting 5 days post-fertilisation (dpf), embryos were fed daily. […] 1 nl of 12.5 ng/μl of GFP-H-RASV12 plasmid and 12.5 ng/μl of T2 transposase mRNA were co-injected in the first cell of zebrafish eggs. Control embryos were injected with the same volume of PBS. H-RASV12 was expressed in zebrafish embryo under heat shock, 30 mn at 37° C. at 1 day post fertilization (dpf) and embryo expressing GFP at 2 dpf were selected for the study.
The embryo injected with the HRASV12 plasmid were treated daily by bathing from 1 dpf to 5 dpf with respectively 20 μM bezafibrate, 20 μM urolithin A, 20 μM bezafibrate+20 μM urolithin A, 10 μM bezafibrate+5 μM urolithin A, 5 μM bezafibrate+5 μM urolithin A. Control embryos were treated with the same volume of DMSO corresponding to 0.2% of DMSO. The imaging and phenotype analysis of mortality and defects of appearance after plasmid injection were performed on alive embryo anesthetized using ethyl 3-aminobenzoate methanesulfonate, MS-222 (Sigma, Cat. #A-5040) at 200 mg/L at 2 days post fertilization, 3 dpf, 4 dpf and 5 dpf using a ZEISS axiocam stereomicroscope (ZEISS, Germany).
Embryos injected with HRASV12 plasmid were selected at 2 days post fertilization (dpf) following their GFP^+/+ expression. HRASV12 plasmid was activated under a heat shock of embryos at 37° C. for 30 minutes. Embryos were observed daily from 2 dpf to 5 dpf in order to analyze the effect of HRASV12 overexpression on their physiological development (FIG. 1A, 1B).

Compound	survival rate	number of defective individuals among alive embryo
O=c1oc2cc(O)ccc2c2ccc(O)cc12 [urolithin A]	≤ 65%	43%
CC(C)(Oc1ccc(CCNC(=O)c2ccc(Cl)cc2)cc1)C(=O)O [bezafibrate, 2-(4-{2-[(4-chlorobenzoyl)amino]ethyl}phenoxy)-2-methylpropanoic acid]	up to 70%	45%

Reference: patent publication US20240293358A1, “COMPOSITION COMPRISING PPAR-MODULATOR AND AN UROLITHIN DERIVATIVE AND USES THEREOF” (Universite de Bordeaux, priority 0001, published 2024)
